Key:
[1] = Stability assay of compound A during the preparation of the injection (HPLC peak area); assay type: physicochemical; settings: for peak area: 210 nm
Description: (§1) Experimental conditions: the chromatography column was DIKMA C18 column (5μ, 250×4.6 mm); the detector was Agilent 1100 DAD detector; the detection wavelength was 210 nm; the liquid phase was acetonitrile-0.02M KH2PO4 (which contains 1‰ of tetrabutylammonium hydroxide, and the pH was adjusted to 7.35 with triethylamine) (35:65); the flow speed was 1 ml/min; and sample amount was 20 μl.
Sample: the solutions in each step of the preparation of the injection of compound A in example 6
Experimental data: the peak area of the solution before filtering with micro-pore filter film was 1084.4, the peak area after filtering was 1078.2, and the peak area after the moist heat sterilization was 1072.9.

[2] = Stability assay of compound A at meta-acidic or meta-alkalescence condition (HPLC peak area); assay type: physicochemical; settings: 2 hours
Description: as §1, with “mm); The” for “mm); the”, “was Waters 3487” for “was Agilent 1100 DAD”, “1‰” for “1‰ of”, “(35:65); and” for “(35:65);”, “1 ml/min.” for “1 ml/min; and sample amount was 20 μl.”
Experimental method: the compound A was formulated into a solution of about 5 mg/ml with distilled water. 0.1 ml of the solution was added into the following solutions respectively: a) 1 ml of HCl diluted solution with a pH of 2; b) 1 ml of distilled water; c) 1 ml of sodium carbonate diluted solution with a pH of 10. After left standing at room temperature for 2 hours, 0.1 ml of each the above three kinds of solution were added into 1 ml of liquid phase solution, respectively, and 20 μl was sampled and injected into the chromatograph. The peak areas were then determined and calculated.

[3] = system: human prostate cancer cell PC-3 transplanted into nude mice; assay: Therapeutic activity against human prostate cancer cell PC-3 transplanted into nude mice; assay type: in vivo, BALB/Ca nude mice; settings: for TV d24 / T/C (%) / RTV / TV d0: dl/3.5 w, i.p; for TV d24: 24th day; for T/C (%): relative tumor proliferation rate; for RTV: relative tumor volume Vt/V0; for TV d0: tumor volume at start of administration
Description: The therapeutic activity experiment of compound A against human prostate cancer cell PC-3 transplanted into nude mice was conducted by SHANGHAI INSTITUTE OF MATERIA MEDICA, CHINESE ACADEMY OF SCIENCES, under assignment by SHANGHAI HUATUO MEDICAL SCIENCE CO., LTD.
Tested Compound: Compound A.
Positive control medicine: mitomycin (MMC), produced by Kyowa Hakko kogyo Co Ltd. (batch no: 468AEF, 2 mg/bottle), was diluted with physiological saline when used.
Animal and transplanted tumor: BALB/Ca nude mice, female, 45˜50 days old, weight 20±1 g. The transplanted tumor of human prostate cancer cell PC-3 in nude mice was established by inoculating the nude mice with PC-3 cell line subcutaneously.
TV (mm^3) is the tumor volume, and the calculation equation is: TV=½×a×b^2, wherein a and b represent length and width respectively. d0 is the tumor volume measured as medicine is administered in divided cages, and d24 is the tumor volume on the 24th day of the experiment. RTV is the relative tumor volume, and the calculation equation is RTV=Vt/V0, wherein V0 is the tumor volume measured as medicine is administered in divided cages (i.e. d0), Vt is the tumor volume measured every time. The evaluation index of the antitumor activity is the relative tumor proliferation rate T/C (%) and the calculation equation is as follows: T/C(%)=(TRTV/CRTV)×100
TRTV: RTV of the therapeutic group; CRTV: RTV of the negative control group.
Evaluation standard of therapeutic effect: T/C (%)>60% is ineffective, T/C (%)≦60 and with a statistic result of p<0.05 represents effective.

| Structure (SMILES) | stability during the injection preparation [1] | peak area ([1]; after filtering) | peak area ([1]; after the moist heat sterilization (116° C., 30 min)) | peak area ([1]; solution before filtering with micro-pore filter film) | Percentage (based on the peak area in distilled water taken as 100%) ([2]; Distilled water (reference), room temperature) | peak area ([2]; Distilled water, room temperature) | stability at both meta-acidic condition and meta-alkalescence condition ([2]; pH 2 and pH 10, room temperature) | peak area ([2]; pH = 2 (HCl diluted solution), room temperature) | Percentage (based on the peak area in distilled water taken as 100%) ([2]; pH = 2, room temperature) | peak area ([2]; pH = 10 (sodium carbonate diluted solution), room temperature) | Percentage (based on the peak area in distilled water taken as 100%) ([2]; pH = 10, room temperature) | TV d24 ([3]; 3 mg/kg) | T/C (%) ([3]; 3 mg/kg) | RTV ([3]; 3 mg/kg) | TV d0 ([3]; 3 mg/kg) | inhibition of the growth of human prostate cancer cell PC-3 transplanted into nude mice ([3]; mouse, in vivo) | TV d24 ([3]; 5 mg/kg) | T/C (%) ([3]; 5 mg/kg) | RTV ([3]; 5 mg/kg) | TV d0 ([3]; 5 mg/kg) |
| --- | --- | --- | --- | --- | --- | --- | --- | --- | --- | --- | --- | --- | --- | --- | --- | --- | --- | --- | --- | --- |
| Cc1c(O)c(O)cc2c1C(S(=O)(=O)[O-])C=C1[C@@]2(C)CC[C@@]2(C)[C@@H]3C[C@](C)(C(=O)O)CC[C@]3(C)CC[C@]12C.[Na+] (some centres unmarked) [Compound A] | good | 1078.2 | 1072.9 | 1084.4 | 100% | 1206926 | good stability | 1247385 | 103.4% | 1232216 | 102.1% | 501 ± 133 mm^3 | 40.2% | 3.8 ± 1.1 | 135 ± 16 mm^3 | marked inhibition effects |  |  |  |  |
| CO[C@@]12[C@H](COC(N)=O)C3=C(C(=O)C(C)=C(N)C3=O)N1C[C@@H]1N[C@@H]12 [mitomycin, reference compound] |  |  |  |  |  |  |  |  |  |  |  |  |  |  |  |  | 400 ± 224 mm^3 | 33.7% | 3.1 ± 1.8 | 135 ± 42 mm^3 |
